In patent US10799456B2, “Multiple drug lipid nanoparticle composition and related methods for extended drug levels in blood and lymph tissue” (priority 2015, dated 2020):
Where two headings read alike, the source gives them in different places.

Key:
[1] = Drug incorporation efficiency into lipid-drug nanoparticles (dialysis); format: physicochemical; details: LNPs with ATV + RTV + TFV (2:1:3); for Incorporation efficiency (%): laboratory 0.2 mL scale; for Incorporation efficiency (%) / Drug incorporation (% total): preclinical 45 mL scale
Method: J Acquir Immune Defic Syndr. […] Journal of pharmaceutical sciences. […] The AAPS journal. […] Residual solvent was removed overnight by vacuum desiccation. The dried lipid-drug film was then rehydrated with 0.9% NaCl containing 20 mM sodium bicarbonate (pH 7.4). The lipid-drug samples were allowed to hydrate at 60° C. for 2 h. Then samples were sonicated (laboratory scale) or homogenized (preclinical scale) to achieve a homogenous suspension.
The incorporation efficiency was calculated as the ratio of the amount of incorporated drug over the total amount of drug loaded multiplied by 100%.

HIV-2(287) replication = test: Antiviral activity in HIV-infected CEM-174 cells; format: cell-based
Method: The antiviral activity of the three-drug combination in soluble or LNP form was evaluated in HIV-infected CEM-174 cells as described previously. […] J Acquir Immune Defic Syndr 2003; 34(4):387-397, incorporated herein by reference in its entirety. […] The dose of drugs added to cells represents the sum of bound and unbound drugs in these anti-HIV LNP formulations.

[2] = Plasma drug exposure after sc LPV/RTV/PMPA, free vs anti-HIV LNP, crossover; details: for LNP/free ratio of plasma AUC 0-168: increase in total drug exposure, fold; for concentration at 24 h: sc, Mean drug concentration, Plasma
From the text: Four young adult male macaques (Macaca nemestrina, 2.9-4.0 kg) were housed and cared for by the Washington National Primate Research Center (WaNPRC) under an approved Institutional Animal Care and Use Committee protocol.
The vehicle for the first suspension was bicarbonate-buffered saline with 3% ethanol and 0.2% bovine serum albumin. The vehicle for the second suspension was bicarbonate-buffered saline with 8% DMSO and 0.1% Tween 20.
(§1) Four macaques were divided into two treatment groups (two animals per group). […] Data were normalized to the anti-HIV LNP dose for comparative analysis.
(§2) Plasma was removed, PBMCs were isolated by the density gradient method, and cells were aliquoted into pellets of approximately 2 million PBMCs each. An inguinal lymph node was surgically excised 24 h after drug administration (n=2 per treatment), LNMCs were isolated by passage through a 100-lm nylon cell strainer (Corning, Tewksbury, Mass.), and cells were aliquoted into pellets of approximately 1-2 million LNMCs each. All samples were stored at −80° C. prior to drug analysis.
(§3) Plasma concentrations of all three drugs were analyzed simultaneously by liquid chromatography-tandem mass spectrometry using a recently published method. […] Antimicrob Agents Chemother 2014; 58(5):2675-2680, incorporated herein by reference in its entirety. PBMC and LNMC pellets were lysed using 200 μl water/methanol (1:1 v/v), sonicated for 10 min, and then extracted and analyzed using the same method as cited above. Intracellular concentrations were converted to ng/ml with the assumption that each cell has a volume of 4×10^−9 ml. Alberts B, Johnson A, Lewis J, et al. Molecular Biology of the Cell, 4 ed. Garland Science, New York, 2002, incorporated herein by reference in its entirety.
Data were analyzed by paired two-tailed Student's t-test with p<0.05 considered statistically significant.

[3] = Intracellular drug concentration in peripheral blood mononuclear cells (PBMCs); format: in vivo, Macaca nemestrina
Method: Plasma concentrations of all three drugs were analyzed simultaneously by liquid chromatography-tandem mass spectrometry using a recently published method. […] PBMC and LNMC pellets were lysed using 200 μl water/methanol (1:1 v/v), sonicated for 10 min, and then extracted and analyzed using the same method as cited above. Intracellular concentrations were converted to ng/ml with the assumption that each cell has a volume of 4×10^−9 ml.

[4] = Intracellular drug concentration in inguinal lymph node mononuclear cells (LNMCs); details: for Kp at 24 h / concentration at 24 h: male, Macaca nemestrina, in vivo; for Kp at 24 h: LN/plasma ratio; for concentration at 24 h: sc, Mean drug concentration, Lymph node
Method: as §1, §2, §3

[5] = % Drug association to particles by assembly method; format: physicochemical
Outline: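 Drugs and excipients (e.g., 9:1 DSPC:PEG-DSPE) dissolved in single-phase CHCl3:alcohol:water (65:35:4), dried under reduced pressure, heated above lipid phase transition (e.g., 50° C.). Hydrated with equilibrated buffered saline at that temperature for 3 hr, then size-reduced by shearing or pressurized filtration in liquid phase.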

[6] = cited from earlier work
[7] = reported values; cited from earlier work
[8] = literature, cited from earlier work
[9] = Plasma drug exposure of three multi-drug lipid formulations vs free drug in primates; details: for Lipid/Free Ratio: total AUC
[10] = Tables 18 and 19; cited from earlier work
[11] = Human immunodeficiency virus 2, CEM174, LPV:RTV:PMPA fixed 1:1:0.5 (m/m/m), LNP form, read-out: EC50 (nM), Drug-lipid nanoparticles with 3 drug combination
[12] = Human immunodeficiency virus 2, CEM174, LPV:RTV:PMPA fixed 1:1:0.5 (m/m/m), free form, read-out: EC50 (nM), Soluble 3 drug combination
[13] = male, Macaca nemestrina, in vivo
[14] = male, Macaca nemestrina, in vivo, Anti-HIV LNP treatment
[15] = male, Macaca nemestrina, in vivo, Free drug treatment
[16] = plasma, listed as Tenofovir (PMPA)

C[C@H](Cn1cnc2c(N)ncnc21)OCP(=O)(O)O [Tenofovir (TFV), [(2R)-1-(6-aminopurin-9-yl)propan-2-yl]oxymethylphosphonic acid]
Incorporation efficiency (%) [1]: 2.4 ± 0.1%
Incorporation efficiency (%) ([1]; listed as TFV): about 2.4%
Incorporation efficiency (%) / Drug incorporation (% total) [1]: 6.1 ± 0.8%
Incorporation efficiency (%) / Drug incorporation (% total) ([1]; listed as tenofovir): 6.1±0.8%
EC50 (HIV-2(287) replication; [11]): 1.5 ± 0.1 nM
EC50 (HIV-2(287) replication; [12]): 49 ± 0.2 nM
EC50 (HIV-2(287) replication; read-out: EC50 (nM), Single agent controls, single agent, listed as PMPA): 1150 ± 0.7 nM
EC50 (HIV-2(287) replication; read-out: EC50 (nM), Single agent controls, single agent, listed as Tenofovir (PMPA/TFV)): 100 to 6000 nM
AUC LNP/free ratio ([2]; 0-168 h): 7.0
Ratio comparison between treatments (LNP/free), Plasma ([2]; 24 h): 3992.8
LNP/free ratio of plasma AUC 0-168 [2]: 7.0
LNP/free ratio of plasma AUC 0-168 ([2]; listed as TFV): 7
AUC 0-8 (%) of total, LNP [2, 13]: 9.1%
AUC 8-168 (%) of total, LNP [2, 13]: 90.9%
concentration at 24 h [2, 14]: 3600 ± 3510 ng/mL
concentration at 24 h [2, 15]: 0.9 ± 1.1 ng/mL
AUC fraction (% of total) Anti-HIV LNP 0-24 h ([2]; plasma): 48.8 ± 33.7%
AUC fraction (% of total) Free drug 0-24 h ([2]; plasma): 99.9 ± 0.2%
AUC Free drug 0-168 h ([2]; plasma, sc 25/14.3/17.1 mg/kg LPV/RTV/PMPA, four animals): 56600 ± 17040 ng·h/mL
AUC fraction (% of total) Anti-HIV LNP 24-168 h ([2]; plasma, listed as PMPA): 51.2%
AUC fraction (% of total) Free drug 24-168 h ([2]; plasma, listed as PMPA): 0.1%
AUC fraction (% of total) Anti-HIV LNP 24-168 h [2, 16]: 51.2 ± 33.7%
AUC fraction (% of total) Free drug 24-168 h [2, 16]: 0.1 ± 0.2%
LNP/free ratio, mononuclear cells in blood ([3]; 0 h): 1.0
Lipid/Free Ratio, PBMCs ([3]; 0 h): 1
LNP/free ratio, mononuclear cells in blood ([3]; 0.5 h): 0.3
Lipid/Free Ratio, PBMCs ([3]; 0.5 h): 0.3
LNP/free ratio, mononuclear cells in blood ([3]; 1 h): 0.4
Lipid/Free Ratio, PBMCs ([3]; 1 h): 0.4
LNP/free ratio, mononuclear cells in blood ([3]; 3 h): 0.5
LNP/free ratio, mononuclear cells in blood ([3]; 5 h): 4.6
Lipid/Free Ratio, PBMCs ([3]; 5 h): 4.6
LNP/free ratio, mononuclear cells in blood ([3]; 8 h): 59.0
LNP/free ratio, mononuclear cells in blood ([3]; 8 h, listed as PMPA): over 50
LNP/free ratio, mononuclear cells in blood ([3]; 8 h, listed as TFV): over 50
LNP/free ratio, mononuclear cells in blood ([3]; 24 h): 70.0
Lipid/Free Ratio, PBMCs ([3]; 24 h): 70
LNP/free ratio, mononuclear cells in blood ([3]; 48 h): >227.0
LNP/free ratio, mononuclear cells in blood ([3]; 168 h): >25.0
Lipid/Free Ratio, PBMCs ([3]; 168 h): >25.0
LNP/free ratio, mononuclear cells of inguinal nodes ([4]; 24 h): 0.7
Ratio comparison between treatments (LNP/free), Lymph node ([4]; 24 h): 0.7
LNP/free ratio, mononuclear cells of inguinal nodes ([4]; 24 h, listed as TFV): 0.7
Kp at 24 h ([4]; Anti-HIV LNP treatment, 24 h): 0.1
Kp at 24 h ([4]; Free drug treatment, 24 h): 284
concentration at 24 h ([4]; Anti-HIV LNP treatment): 190 ± 22.8 ng/mL
concentration at 24 h ([4]; Free drug treatment): 256 ± 31.5 ng/mL
% Drug Association to Particles, LNPs from mixture of dual solvent method [5]: 7-30%
% Drug Association to Particles, LNPs from single, miscible solvent method [5]: 78-85%
% association of hydrophilic drug in typical liposome ([5]; typical liposomes): 3-5%
Water solubility @ 25° C. [6]: 13.3 mg/mL
% Drug Association to Particles, Liposomes [7]: ~5%
final % drug association ([8]; double emulsion nano-precipitate method): less than 3%
association of hydrophilic drug ([8]; phosphatidylcholine with stearylamine, particles up to ˜2000 nm): 70%
Lipid/Free Ratio ([9]; ATZ/RTV/TFV combination): 25.2
Lipid/Free Ratio ([9]; LPV/RTV/TFV combination): 13.1
fold increase in plasma exposure, lipid-stabilized vs free drug ([9]; across drug combinations): 10- to 20 fold

CC(C)c1nc(CN(C)C(=O)N[C@H](C(=O)N[C@@H](Cc2ccccc2)C[C@H](O)[C@H](Cc2ccccc2)NC(=O)OCc2cncs2)C(C)C)cs1 [Ritonavir (RTV), Ritonavir]
EC50 (HIV-2(287) replication; [11]): 3 ± 0.8 nM
EC50 (HIV-2(287) replication; [12]): 98 ± 0.3 nM
EC50 (HIV-2(287) replication; Human immunodeficiency virus 2, CEM174, read-out: EC50 (nM), Single agent controls, single agent): 530 ± 0.2 nM
EC50 (HIV-2(287) replication; read-out: EC50 (nM), Single agent controls, single agent): 1040 nM
AUC 0-8 (%) of total, LNP [2, 13]: 11.3%
AUC 8-168 (%) of total, LNP [2, 13]: 88.7%
AUC fraction (% of total) Anti-HIV LNP 24-168 h [2, 13]: 57.0 ± 12.5%
concentration at 24 h [2, 14]: 164 ± 116 ng/mL
concentration at 24 h [2, 15]: 5.9 ± 9.3 ng/mL
Kp at 24 h ([4]; Free drug treatment, 24 h): 5.5
concentration at 24 h ([4]; Anti-HIV LNP treatment): 1640 ± 19 ng/mL
concentration at 24 h ([4]; Free drug treatment): 32.6 ± 32.6 ng/mL
% Drug Association to Particles, LNPs from mixture of dual solvent method [5]: 80-100%
% Drug Association to Particles, LNPs from single, miscible solvent method [5]: 90-100%
LogP [10]: 6
